Key:
[1] = test system: primary mouse megakaryocytes; assay: Platelet production from cultured mouse bone marrow megakaryocytes; assay type: cell-based, mouse (C57BL/6)
Protocol: Bone marrow was isolated from the femora of male C57BL/6 mice (Jackson Laboratories, Bar Harbor, Me.) and plated at a concentration of 1×10^6 cells per well in 12-well plates in IMDM (Iscove's Modified Dulbecco's Media, Invitrogen) with 20% BIT 9500 (BSA, insulin, transferrin) and supplemented with 100 ng/mL of rhTPO. Cells were cultured for 5 days, following which 15d-PGJ2 (10 μM) was added to the culture medium for 24 h. On the sixth day, cells were examined by phase-contrast microscopy using an inverted microscope (Olympus IX81) and images were captured using SPOT RT software (New Hyde Park, N.Y.). Megakaryocytes were identified by preincubating with anti-mouse CD16/32 (FcγR-blocking antibody) and then incubating with PE-conjugated hamster anti-mouse CD41 antibody.
(§1) Platelets were isolated from megakaryocytes by centrifugation at 150 xg for 10 min. Supernatants underwent sequential centrifugation (500 xg for 10 min and 1000×g for 10 min). The remaining platelet pellet was fixed then permeabilized with a CD61 or CD41 antibody. 7-AAD (BD Pharmingen) was added for 10 min before analyzing the cells by flow cytometry. […]

Dami cells = assay: Platelet production from Dami cells (flow cytometry); assay type: cell-based; conditions: 10 μM, 24 h
Protocol: Meg-01 and M07e cells were purchased from the American Type Culture Collection (Rockville, Md.) and Dami cells were a generous gift from Dr. Patricia J. Simpson-Haidaris (University of Rochester). All cells were cultured in RPMI-1640 tissue culture medium (Invitrogen) supplemented with 5% fetal bovine serum (FBS; Invitrogen), 10 mM HEPES (N-2-hydroxyethylpiperazine-N′-2-ethanesulfonic acid; Sigma), 2 mM L-glutamine (Invitrogen), 4.5 g/L glucose (Invitrogen), and 50 μg/mL gentamicin (Invitrogen). M07e cells were also supplemented with 100 ng/mL of granulocyte monocyte-colony stimulating factor (GM-CSF, R&D Systems). All treatments were performed in normal growth media. Dimethyl sulfoxide (DMSO) was used as a vehicle (control) in the experiments described below.
as §1

[2] = test system: human culture-derived platelets; assay: Function of human culture-derived platelets (collagen response, spreading on fibrinogen); assay type: cell-based
Protocol: Platelets were isolated from the Meg-01 cells and human blood as described above. Both normal human platelets and Meg-01-derived platelets were stained with annexin V-FITC then treated with 10 μg/ml of collagen for 15 min. Cells were analyzed for collagen-induced annexin V binding and change in size and shape by flow cytometry. Platelets were isolated from primary human megakaryocytes and primary mouse megakaryocytes as described above. Primary human platelets were stained with CD41-FITC and primary mouse platelets were stained with CD61-PE then treated with 10 μg/mL of collagen. Cells were analyzed for collagen-induced CD61/CD41 upregulation and change in size and shape using flow cytometry.
Coverslips were coated with 100 μg/mL of fibrinogen for 1 h and blocked with 0.5 mg/mL BSA for 1 h. Platelets were added to the fibrinogen-coated coverslips in Tyrode's buffer and fixed with glutaraldehyde, post-fixed with 1% osmium tetroxide, and dehydrated. Platelets were then coated with a gold/palladium film. Images were acquired using the Zeiss-Leo 982 FE-SEM (scanning electron microscope).

[3] = test system: primary human megakaryocytes; assay: Reactive oxygen species production in primary human megakaryocytes; assay type: cell-based; conditions: 1 h and 6 h
Protocol: Human CD34+ cord blood cells were obtained from the National Disease Research Interchange (NDRI, Philadelphia, Pa.). Cells were plated at 2.5×10^5 cells per well in a 12-well plate and cultured in serum-free medium as previously described (Zeuner et al., “Chemotherapy-induced Thrombocytopenia Derives from the Selective Death of Megakaryocyte Progenitors and Can Be Rescued by Stem Cell Factor,” Cancer Res 67:4767-4773 (2007), which is hereby incorporated by reference in its entirety) and supplemented with 100 ng/mL of rhTPO. After 14 days in culture, megakaryocytes were identified by staining with a CD61-FITC antibody and analyzed on a BD Biosciences FACSCalibur flow cytometer. Data were analyzed using FlowJo software (Treestar, Ashland, Oreg.). Cell images were captured using an inverted microscope (Olympus IX81). Ten μM carboxy-H2DCFDA was added to cells for 20 min at RT. The cells were washed and immediately analyzed by flow cytometry. Five μM of MitoSOX Red dye in HBSS containing Mg^2+ and Ca^2+ was added to the cells for 15 min at 37° C. The cells were washed in HBSS and analyzed by flow cytometry.

[4] = test system: mouse megakaryocyte progenitors (Meg-CFC); assay: Megakaryocyte progenitor (Meg-CFC) assay on bone marrow of treated mice; assay type: in vivo
Protocol: Primary mouse bone marrow cells were suspended in IMDM at a concentration of 8×10^6 cells/mL. Two-hundred thousand cells were plated in IMDM supplemented with 20% BIT9500, 0.2% 2-mercaptoethanol, 2% Glutamax, and 20% Cellgro-H20 (Mediatech, Herndon, Va.) and cultured with rhTPO (50 ng/mL), IL-3 (10 ng/mL) (Preprotech, Rocky Hill, N.J.), IL-6 (20 ng/mL) (Preprotech), IL-11 (Preprotech) (50 ng/mL), and collagen at 37° for 7 days (Tober et al., “The Megakaryocyte Lineage Originates from Hemangioblast Precursors and is an Integral Component Both of Primitive and of Definitive Hematopoiesis,” Blood 109:1433-1441 (2007), which is hereby incorporated by reference in its entirety). Collagen gels were dehydrated, fixed, and labeled with GPIbβ and GPV, modified by ABC (Vector Labs, Burlingame, Calif.), and developed in Vector Red (Vector Labs). Meg-CFC were defined by their ability to generate colonies containing at least three megakaryocytes.

[5] = mice injected 1 mg/kg for two consecutive days, 7 days of culture

CCCCCC=CC=C1C(=O)C=C[C@@H]1CC=CCCCC(=O)O [15d-PGJ2, 15-deoxy-Δ^12,14 prostaglandin J2]
increase in percentage of CD61+ platelets in culture ([1]; mouse bone marrow cultured 5 days with rhTPO, then 10 μM for 24 h): ~14%
megakaryocyte surface morphology ([1]; mouse megakaryocytes, 10 μM, 24 h, microscopy): induced the appearance of ruffled edges on the megakaryocytes
platelet production (Dami cells): increased platelet production
platelet spreading on fibrinogen ([2]; human culture-derived platelets, fibrinogen coated slide): spread in response to fibrinogen
geometric mean fluorescence intensity of surface CD61, after collagen treatment ([2]; platelets from CD61+ cell cultures treated with 15d-PGJ2, collagen 10 μg/mL, 15 min): 20
geometric mean fluorescence intensity of surface CD61, before collagen ([2]; platelets from CD61+ cell cultures treated with 15d-PGJ2, no collagen): 5
percentage of ROS positive cells, Mitosox Red staining [3]: increase in the percentage of ROS positive cells
percentage of ROS positive cells, carboxy-H2DCFDA staining [3]: increase in the percentage of ROS positive cells
megakaryocyte number [4]: failed to increase megakaryocyte number
megakaryocyte colony number (Meg-CFC) [4, 5]: did not influence megakaryocyte colony number or colony size
megakaryocyte colony size (Meg-CFC) [4, 5]: did not influence megakaryocyte colony number or colony size
percentage of megakaryocytes producing proplatelets [4, 5]: significantly augmented the percentage of megakaryocytes producing proplatelets

— patent US9012439B2, “Use of electrophilic compounds for inducing platelet production or maintaining platelet function” (University of Rochester, priority 2007, dated 2015)
